In data set [1] the test system is Bmi1-luciferase reporter cell line. The data set can be described thus: Bmi1-luciferase reporter assay (screen for inhibitors of BAF-mediated transcriptional repression). The data set is classed as cell-based, mouse. To be noted: for activity in the Bmi1 luciferase reporter assays: grading in words. On the procedure:
Low passage mESCs from 129 mice (20 million, p10) were electroporated with 40 μg of a linearized construct consisting of 2 kb homology upstream of the Bmi1 locus, firefly luciferase at exon 1 of Bmi1 followed by loxP neo and a 6 kb 3′ homology arm with thymidine kinase outside the homology arms. The cells were plated on 10 gelatin treated plates (60 mm) of irradiated neo resistant MEFs and selected with G418 and ganciclovir for 5 days. 384 colonies were selected, trypsinized and replated in gelatin treated 24-well plates for expansion. The cells were split and DNA was isolated for digestions with EcoRI or BamHI. We confirmed the successful homologous recombination in 7 out 384 colonies using Southern blot analysis at both the 5′ (EcoRI) and 3′ (BamHI) end (see Table S2 of Marian et al., “Small Molecule Targeting of Specific BAF (mSWI/SNF) Complexes for HIV Latency Reversal,” Cell Chem. Biol. (Dec. 20, 2018) 25: 1443-1445). We deleted the neomycin cassette using transfected Cre recombinase and confirmed the excision at all clones using a second round of Southern blot analysis at the 3′ end (BamHI).
(§1) 3. Compound Treatment: 10,000 cells in 30 μL ESC media were plated in white 384 well CellBind plates. The cells were cultured in a 37° C., 5% CO2 incubator for 24 h and 100 nL/well of 0.75 mM of positive control (Pubchem SID: 85814977) or 100 nL/well of 3.75 mM compound library (primary screen) was added via pin transfer into plates. There was no effect on assay readout at DMSO concentrations up to 0.5%. The cells were cultured in a 37° C., 5% CO2 incubator for 24 h for luciferase reporter assay and 18 h for qRT-PCR assay. 4. Luciferase assay: (PubChem AID 602393 primary, PubChem AID 651717 confirmatory.) The assay plates were removed from the incubator and equilibrates for 10 minutes to room temperature. Promega SteadyGlo® solution (10 μL/well) was added to each well of the assay plates. The assay plates were mixed at 1000 rpm for 15 seconds and then incubated for 10 minutes at room temperature. The luciferase levels were read on a Perkin Elmer Envision in Ultra Sensitive Luminescence mode. Signals remained stable up to 2 hours. 5. EqRT-PCR secondary screen (PubChem AID 743180, 743177, 743176) The qRTPCR screen was performed as published^54. In brief, 5,000 ES cells were plated on gelatin-coated 384-well tissue culture plates and cultured in a 37C, 5% CO2 incubator. 24 h later, hit compounds in 100 nL DMSO were treated at eight different doses. 18 h after compound treatment cells were washed two times with 100 μL PBS and all excess PBS was removed by centrifuging the plates upside down at 1000 rpm. The Ambion® Cells-to-Ct kit was used to generate cDNA. In brief, the cells were lysed in the plate in 10 μL lysis buffer containing DNase for 10 minutes and quenched with 1 μL lysis stop buffer. The lysate (2 μL) was added to 5 μL RT reaction buffer (2×), 2.5 μL nuclease-free water and 0.5 μL Reverse transcriptase (20×) and incubated at 37° C. for 60 minutes and 95° C. for 1 minute to generate 10 μL of cDNA. cDNA (1 μL) was used in each 5 μL qPCR reaction with Roche master mix and TaqMan probes (Applied Biosystems) for Bmi1-FAM (Mm00776122_gH), Ring1a-FAM (Mm01278940_m1/4331182), or Fgf4-FAM (Mm00438916_g1/4351372) alongside actin-VIC (4352341E) for a loading control. The qPCR was run accordingly: 95° C. for 10 minutes Then 55 cycles of: 95° C. for 10 seconds followed by 60° C. for 30 seconds. The fold increase in transcription was calculated using the ΔΔCT method^84. 6. Viability Assays (PubChem AID: 743188, 743189, 743190, 1053139, 1053140, 1053141)
For orientation: A reporter such as luciferase makes a cellular process visible.

For data set [2], the system named is latent HIV-1 infected T cells. The data set can be described thus: HIV latency reversal activity of the thiophene hit. The data set is classed as cell-based.
In data set [3] the test system is latent HIV-1 in CD4+ T cells from c-ART treated HIV-1 infected patients. Briefly: HIV latency reversal from patient samples (cell associated HIV Pol mRNA). Type of data set: cell-based, human. Particulars: Patient 1 (one patient); single agents; 24 hours. On the procedure: 23. HIV latency reversal from patient samples: All patients were older than 18 years, c-ART treated for at least 3 years, and their viral loads were below 50 copies/ml for more than 12 months with no blips in the past two years. CD4+ T cells from aviremic HIV+ patients were isolated as described previously^55 with minor modifications. Briefly, frozen PBMCs were cultured in RPMI medium over-night to recover. Then next day CD4+ T cells were isolated twice (enriched CD4+ T cells were subjected to a second round of CD4+ T cell enrichment) and left for 6 hrs to recover. Three million cells were treated with DMSO, 10 μM BRD-K80443127, 200 nM Prostratin, 10 μM BRD-K80443127 and 200 nM prostratin, and αCD3/CD28 magnetic beads (at cell:bead ration 1:1) as a positive control in triplicate. After 24 hours cells were lysed in TRIreagent (Sigma), total RNA was isolated with Total RNA Zol-Out (A&A Biotechnology) kit and cDNA was synthetized using random primers and Superscript II Reverse Transcriptase (Life Technologies). Detection of cellular associated pol RNA was performed as described previously (Pol: For […] (SEQ ID NO:15), Rev-[…] (SEQ ID NO: 16))^55. This study was conducted in accordance with the ethical principles of the Declaration of Helsinki. HIV-1 infected patient volunteers were informed and provided signed consent to participate in the study. The study protocol was approved by The Netherlands Medical Ethics Committee (MEC-2012-583). cDNA generated from control and 10 μM BRD-K80443127 treated samples was used to assess expression of BAF target genes biomarker genes-p21 and C-MYC.

For data set [4], the system named is BAF target genes (Bmi1, Ring1, Fgf4). The data set can be described thus: qRT-PCR of BAF target genes in ESCs. The data set is classed as cell-based, mouse. To be noted: 30 μM of compound, 18 h. Here is the method:
as §1, with “The lysate (2 μL) was added to 5 μL RT reaction buffer (2×), 2.5 μL nuclease-free water and 0.5 μL Reverse transcriptase (20×) and incubated at 37° C. for 60 minutes and 95° C. for 1 minute to generate 10 μL of cDNA. cDNA (1 μL) was used in each 5 μL qPCR reaction with Roche master mix and TaqMan probes (Applied Biosystems) for Bmi1-FAM (Mm00776122_gH), Ring1a-FAM (Mm01278940_m1/4331182), or Fgf4-FAM (Mm00438916_g1/4351372) alongside actin-VIC (4352341E) for a loading control. The qPCR was run accordingly: 95° C. for 10 minutes Then 55 cycles of: 95° C. for 10 seconds followed by 60° C. for 30 seconds.” left out, “6. Viability Assays (PubChem AID: 743188, 743189, 743190, 1053139, 1053140, 1053141)” left out
A general note: In qPCR the cycle at which signal appears reflects the starting amount.

Data set [5] concerns wild type ESCs. The data set can be described thus: Viability in wild type ESCs (CellTiter-Glo). Type of data set: cell-based, mouse. To be noted: up to 30 μM; 72 h. Here is the method: FIG. 2: 12-membered macrolactams are inhibitors of BAF-mediated transcription. A. The EC50 was measured for the best screen hit BRD-K98645985 after 24 h compound treatment with the Bmi1-luciferase reporter cell line. Each concentration was dosed in triplicate. B. The fold change of the transcription of three BAF target genes was calculated using qRT-PCR after 18 h BRD-K98645985 treatment (30 μM) or Brg1 knockdown compared to untreated cells. C. Viability measurements in wild type ESCs were performed after 72 h of compound or DMSO treatment using CellTiter-Glo®. D. The structure activity relationship of the eight stereoisomers of BRD-K98645985 based on initial luciferase induction from the primary screen. E. The structure activity relationship of the 3618 macrolactam library members based on initial luciferase induction from the primary screen.
Cell culture: HepG2, A549 and HEK293 cells were propagated to 95% confluence in DMEM containing 10% FBS 1% Pen/Strep, 1% L-Glutamine. Cells were plated at 2000 per well in 40 μL media in white tissue culture treated 384-well plates and incubated at 5% CO2; 95% humidity, 37° C. for 24 hours. […] The plates were read on Perkin-Elmer EnVision with standard luminescence settings for 0.1 sec per well.

For data set [6], the system named is HepG2 cells. The data set can be described thus: Viability assay HepG2. Type of data set: cell-based. To be noted: 72 h. Here is the method: (§2) Cell culture: HepG2, A549 and HEK293 cells were propagated to 95% confluence in DMEM containing 10% FBS 1% Pen/Strep, 1% L-Glutamine. Cells were plated at 2000 per well in 40 μL media in white tissue culture treated 384-well plates and incubated at 5% CO2; 95% humidity, 37° C. for 24 hours. Compound (100 nL) was added to wells using a pin tool (CyBi Well) alongside 100 nL cytotoxic compounds, mitoxantrone (final concentration of 10 μM) as a positive control. The cells were incubated for 72 hours at 37° C., 95% humidity 5% CO2. Plates were removed from the incubator, equilibrated for 15 minutes to room temperature; and 20 μL 50% Promega CellTiterGlo (diluted 1:1 with PBS, pH 7.4) was added. The plates were read on Perkin-Elmer EnVision with standard luminescence settings for 0.1 sec per well.

The subject of data set [7] is HEK293T cells. The data set can be described thus: Viability assay HEK293T. Type of data set: cell-based. Particulars: 72 h. Here is the method:
as §2

For data set [8], the system named is A549 cells. Briefly: Viability assay A549. The data set is classed as cell-based. To be noted: 72 h. On the procedure:
as §2

The subject of data set [9] is latent provirus in J-Lat T-cell line. The data set can be described thus: Cell line models of HIV-1 latency (J-Lat, GFP). The data set is classed as cell-based. Particulars: higher concentrations than in primary cells; 48 h. On the procedure:
[drawing 27] i. BRD-K25923209: To Macrocycle 2141-039b (0.804 g, 1.550 mmol) dissolved in MeOH (Volume: 15.50 ml) was added tin(II) chloride dihydrate (3.50 g, 15.50 mmol). […] Upon completion, the reaction mixture was concentrated and the resulting residue was dissolved in EtOAc and washed with 2 M aq. KOH (2×). The combined aqueous layers were washed with EtOAc (4×). The resulting organic layers were washed with brine, saturated aqueous NaHCO3, water, and brine, dried over MgSO4, filtered, and concentrated. […] BRD-K80443127: A screwtop vial was charged with aniline (BRD-K25923209) (43.3 mg, 0.089 mmol) and CH2Cl2 (Volume: 886 μl, Density: 1.325 g/ml). Isopropyl chloroformate (115 μl, 0.115 mmol) and DIEA (46.4 μl, 0.266 mmol) were added dropwise and reaction stirred under ambient conditions for 1 h. […] BRD-K04244835: A 2.5 mL microwave vial was charged with aniline (BRD-K25923209) (40 mg, 0.082 mmol) and EtOH (Volume: 819 μl, Density: 0.81 g/ml). Squaramide (CRE-III-001) (20.75 mg, 0.098 mmol), DIEA (42.8 μl, 0.246 mmol), and DMAP (2.000 mg, 0.016 mmol) were added in sequence and the vial was sealed. […] 9. […] 10. […] 11.

This note sets out measurements from patent publication US11980613B2, “Methods for reversing HIV latency using BAF complex modulating compounds” (priority 2018, dated 2024).

The structures appear in SMILES notation.

As to `CO[C@H]1CN(C)C(=O)c2cc(NC(=O)NC(C)C)ccc2OC[C@H](C)N(Cc2ccccc2)C[C@@H]1C` [BRD-K13648511], the “activity in the Bmi1 luciferase reporter assays” value in data set [1] is listed as “low/no activity”.
For `CO[C@H]1CN(C)C(=O)c2cc(NC(=O)NC(C)C)ccc2OC[C@H](C)N(Cc2ccc(-c3cccnc3)cc2)C[C@@H]1C` [BRD-K17257309], the “activity in the Bmi1 luciferase reporter assays” value in [1] was “moderate activity”.
Turning to `CO[C@H]1CN(C)C(=O)c2cc(N)ccc2OC[C@H](C)N(Cc2ccc(-c3ccccn3)cc2)C[C@@H]1C` [BRD-K25923209], in data set [1], the “activity in the Bmi1 luciferase reporter assays” value is “high activity”.
On to `C=CCNc1nc(NCc2cccc(OC)c2)c2sc(-c3ccccc3)cc2n1` [MLS003122856], for which the “HIV latency reversal activity” value in data set [2] is “moderate”.
As for `CC(=O)O[C@@]12C[C@@H](C)[C@@]3(O)[C@@H](C=C(CO)C[C@]4(O)C(=O)C(C)=C[C@@H]34)[C@@H]1C2(C)C` [prostratin, reference compound], the “cell associated HIV mRNA (Pol), response” value in data set [3] is reported as “responded”.
Consider `CO[C@H]1CN(C)C(=O)c2cc(NC(=O)NC(C)C)ccc2OC[C@H](C)N(Cc2ccc(-c3ccccn3)cc2)C[C@@H]1C` [BRD-K98645985], for which, in [1], the “activity in the Bmi1 luciferase reporter assays” value was “high activity”. Also, in data set [1] (re-evaluation of hit, 24 h compound treatment), the EC50 is approximately 2370 nM. In [4], the “fold decrease in Fgf4” value was 3.3 fold, the “fold increase in Bmi1” value is listed as 5 fold and the “fold increase in Ring1” value is on record as 2.6 fold. The “toxicity to ESCs” value in data set [5] is on record as “no toxicity”. Further, the “toxicity to HepG2 cells” value in [6] is “no toxicity”. Also, in [7], the “toxicity to HEK293T cells” value was “no toxicity”. Further, in data set [8], the “toxicity to A549 cells” value is given as “no toxicity”. In [9], the “latency reversal (GFP)” value is given as “concentration dependent latency reversal”.
Turning to `CCC(CC)Nc1c(Nc2ccc3c(c2)C(=O)N(C)C[C@H](OC)[C@@H](C)CN(Cc2ccc(-c4ccccn4)cc2)[C@@H](C)CO3)c(=O)c1=O` [BRD-K04244835], the “activity in the Bmi1 luciferase reporter assays” value in data set [1] is on record as “low/no activity”.

By EC50 is commonly meant the concentration giving half of the maximal effect.
